One test has as its target T1, human GST-DYRK1A (Homo sapiens, UniProt Q13627).
T1 construct: purified human GST-DYRK1A (full length, Thermo Scientifics) enzyme; purchased Thermo Scientifics
Put plainly: GST-DYRK1A enzyme inhibition, ADP-Glo kinase assay. Type of test: biochemical. Conditions: ATP 10 μM, GST-DYRK1A full length, read-out: DYRK1 IC50. Here is the method: (§1) To evaluate an inhibitory activity of the compound according to the present invention against LRRK2, LRRK2 (G2019S), DYRK1, CLK1, and TTK kinases, experiments were performed as follows.
(§2) Each of the Example compounds was reacted with a purified human GST-DYRK1A (full length, Thermo Scientifics) enzyme to evaluate an ability to inhibit an enzyme using a method as described below. A composition of 40 mM Tris-HCl (pH 7.4), 20 mM MgCl2, 0.5 mg/mL BSA, and 50 μM DTT was used as a reaction buffer, and all reactions of test substances were performed in the reaction buffer. In the test, purified ATP (10 μM) and a specific substrate solution were reacted with a human GST-DYRK1A (full length, 10 ng) enzyme at 25° C. for an hour, and the enzyme activities were then determined using an in vitro ADP-Glo™ kinase assay (Promega). An enzyme-activity reaction solution, an ADP-Glo reaction solution, and an enzyme-ability detection solution were reacted at a ratio of 2:2:1 to measure a degree of inhibition of the enzyme activity with luminescence. The degree of inhibition of the enzyme activity according to the treatment concentration of each of the compounds was calculated based on the fluorescence of the enzyme activity of the solvent control which was not treated with the compound. In this case, the concentration of each of the compounds inhibiting 50% of the enzyme activity was determined to be an IC50 (nM) value, and the IC50 (nM) value of each of the compounds was determined from 3 sets of data, and calculated using Prism (Version 5.01; GraphPad) software.

The next test concerns the target T2, human GST-CLK1 (Homo sapiens, UniProt P49759).
T2 construct: purified human GST-CLK1 (129-end, SignalChem) enzyme; purchased SignalChem
Briefly: GST-CLK1 enzyme inhibition, ADP-Glo kinase assay. To be noted: ATP 10 μM, GST-CLK1 129-end. Type of test: biochemical. Here is the method: as §1
as §2, with “GST-CLK1 (129-end, SignalChem)” for “GST-DYRK1A (full length, Thermo Scientifics)”, “GST-CLK1 (129-end, 3” for “GST-DYRK1A (full length, 10”, “value. The” for “value, and the”
(In ADP-Glo the light output rises with the ADP produced.)

T2 sequence (P49759 129-484 limits assumed): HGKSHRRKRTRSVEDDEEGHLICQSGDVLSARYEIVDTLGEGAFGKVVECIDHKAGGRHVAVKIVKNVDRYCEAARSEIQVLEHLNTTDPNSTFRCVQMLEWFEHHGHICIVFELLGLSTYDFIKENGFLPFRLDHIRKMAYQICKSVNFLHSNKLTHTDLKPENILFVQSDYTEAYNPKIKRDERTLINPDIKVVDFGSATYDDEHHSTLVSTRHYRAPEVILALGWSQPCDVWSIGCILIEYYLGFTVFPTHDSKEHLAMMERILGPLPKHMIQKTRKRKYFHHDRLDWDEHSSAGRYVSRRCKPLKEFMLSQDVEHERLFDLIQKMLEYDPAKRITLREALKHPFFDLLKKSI

For the compound `COc1cc(P2(=O)CCN(C3COC3)CC2)ccc1Nc1nc(NC(C)C)c2c(C#N)c[nH]c2n1` [Example 293, 4-(isopropylamino)-2-((2-methoxy-4-(1-(oxetan-3-yl)-4-oxido-1,4-azaphosphinan-4-yl)phenyl)amino)-7H-pyrrolo[2,3-d]pyrimidine-5-carbonitrile], the IC50 – broadly, the concentration that gives 50% inhibition – on human GST-DYRK1A is 101 to 300 nM; on human GST-CLK1, < 100 nM.

For `CC(C)CNc1nc(Nc2ccc(C(=O)N3CC(CO)(CO)C3)c3c2OCCO3)nc2[nH]cc(C#N)c12` [Example 328, 2-((8-(3,3-bis (hydroxymethyl)azetidine-1-carbonyl)-2,3-dihydrobenzo[b] [1,4]dioxin-5-yl)amino)-4-(isobutylamino)-7H-pyrrolo[2,3-d]pyrimidine-5-carbonitrile], the IC50 at human GST-DYRK1A was 301 to 1000 nM; against human GST-CLK1, < 100 nM.

Turning to `COc1cc(P2(=O)CCN(C3COC3)CC2)ccc1Nc1nc(NCC2CCCC2)c2c(C#N)c[nH]c2n1` [Example 309, 4-((cyclo-pentylmeth-yl)amino)-2-((2-methoxy-4-(1-(oxetan-3-yl)-4-oxido-1,4-azaphosphinan-4-yl)phenyl)amino)-7H-pyrrolo[2,3-d]pyrimidine-5-carbonitrile], the IC50 at human GST-DYRK1A and against human GST-CLK1 was 301 to 1000 nM each time.

As for `COc1cc(P2(=O)CCN(C3CC3)CC2)ccc1Nc1nc(NCC2CCC2)c2c(C#N)c[nH]c2n1` [Example 306, 4-((cyclo-butylmethyl)amino)-2-((4-(1-cyclopropyl-4-oxido-1,4-azaphosphinan-4-yl)-2-methoxyphenyl)a-mino)-7H-pyrrolo[2,3-d]pyrimidine-5-carbonitrile], the IC50 on human GST-DYRK1A and against human GST-CLK1 was 301 to 1000 nM throughout.

Take `COc1cc(S(=O)(=O)N2CCC(N3CCOCC3)CC2)ccc1Nc1nc(N[C@H]2CCOC2)c2cc[nH]c2n1` [Example 29, (S)-N^2-(2-methoxy-4-((4-morpholinopiperidin-1-yl)sulfonyl)phenyl)-N^4-(tetrahydrofuran-3-yl)-7H-pyrrolo[2,3-d]pyrimidine-2,4-diamine]: the IC50 on human GST-DYRK1A and against human GST-CLK1 was 301 to 1000 nM in each case.

On to `COCCNc1nc(Nc2ccc(P3(=O)CCN(C4COC4)CC3)cc2OC)nc2[nH]cc(C#N)c12` [Example 312, 2-((2-methoxy-4-(1-(oxetan-3-yl)-4-oxido-1,4-azaphosphinan-4-yl)phenyl)amino)-4-((2-methoxyethyl)amino)-7H-pyrrolo[2,3-d]pyrimidine-5-carbonitrile], for which the IC50 on human GST-DYRK1A is 101 to 300 nM; against human GST-CLK1 it was < 100 nM.

`CCCNc1nc(Nc2ccc(P(C)(C)=O)cc2OC)nc2[nH]cc(C(F)(F)F)c12` [Example 369, (3-methoxy-4-((4-(propylamino)-5-(trifluoromethyl)-7H-pyrrolo[2,3-d]pyrimidin-2-yl)amino)phenyl) dimethyl-phosphine oxide]: the IC50 on human GST-DYRK1A is 101 to 300 nM; against human GST-CLK1, < 100 nM.

Regarding `COc1cc(P2(=O)CCN(C3COC3)CC2)ccc1Nc1nc(NC2CCOCC2)c2c(C#N)c[nH]c2n1` [Example 303, 2-((2-methoxy-4-(1-(oxetan-3-yl)-4-oxido-1,4-azaphosphinan-4-yl)phenyl)amino)-4-((tetrahydro-2H-pyran-4-yl)amino)-7H-pyrrolo[2,3-d]pyrimidine-5-carbonitrile], the IC50 on human GST-DYRK1A and on human GST-CLK1 was 301 to 1000 nM each time.

Consider `COc1cc(P(C)(C)=O)ccc1Nc1nc(NC2CCCC2)c2c(C#N)c[nH]c2n1` [Example 269, 4-(cyclopentylamino)-2-((4-(dimethylphosphoryl)-2-methoxyphenyl)amino)-7H-pyrrolo[2,3-d]pyrimidine-5-carbonitrile], for which the IC50 on human GST-DYRK1A lay in the range of 301 to 1000 nM; at human GST-CLK1, 101 to 300 nM.

With `COCCNc1nc(Nc2ccc(S(C)(=O)=O)cc2OC)nc2[nH]cc(C(N)=O)c12` [Example 234, 2-((2-methoxy-4-(methylsulfonyl)phenyl)amino)-4-((2-methoxy)amino)-7H-pyrrolo[2,3-d]pyrimidine-5-carboxamide], the IC50 at human GST-DYRK1A and on human GST-CLK1 was 301 to 1000 nM each time.

As to `CNc1nc(Nc2ccc(C(=O)N3CCN(C4COC4)CC3)c3c2OCCO3)nc2[nH]cc(C#N)c12` [Example 280, 4-(methylamino)-2-((8-(4-(oxetan-3-yl)piperazine-1-carbonyl)-2,3-dihydrobenzo[b][1,4]dioxin-5-yl)amino)-7H-pyrrolo[2,3-d]pyrimidine-5-carbonitrile], the IC50 at human GST-DYRK1A was 101 to 300 nM; at human GST-CLK1, < 100 nM.

Turning to `CCNc1nc(Nc2ccc(C(=O)N3CCC(N4CCOCC4)CC3)c3c2OCO3)nc2[nH]cc(C#N)c12` [Example 264, 4-(ethyalmino)-2-((7-(4-morpholino-1-carbonyl)benzo[d][1,3]dioxol-4-yl)amino)-7H-pyrrolo[2,3-d]pyrimidine-5-carbonitrile], the IC50 was 101 to 300 nM on human GST-DYRK1A and < 100 nM against human GST-CLK1.

With `N#Cc1c[nH]c2nc(Nc3ccc(C(=O)N4CCN(C5COC5)CC4)c4c3OCCO4)nc(NCC3CCC3)c12` [Example 318, 4-((cyclo-butylmethyl)amino)-2-((8-(4-(oxetan-3-yl)piperazine-1-carbonyl)-2,3-dihydrobenzo[b] [1,4]dioxin-5-yl)amino)-7H-pyrrolo[2,3-d]pyrimidine-5-carbonitrile], the IC50 on human GST-DYRK1A lay in the range of 301 to 1000 nM; against human GST-CLK1, 101 to 300 nM.

Consider `CC(C)Nc1nc(Nc2ccc(C(=O)N3CC(CO)(CO)C3)c3c2OCCO3)nc2[nH]cc(C#N)c12` [Example 329, 2-((8-(3,3-bis (hydroxymethyl)azetidine-1-carbonyl)-2,3-dihydrobenzo[b] [1,4]dioxin-5-yl)amino)-4-(isopropylamino)-7H-pyrrolo[2,3-d]pyrimidine-5-carbonitrile], for which the concentration for half-maximal inhibition (IC50) was 301 to 1000 nM on human GST-DYRK1A and < 100 nM against human GST-CLK1.

For `CC[C@@H](C)Nc1nc(Nc2ccc(S(C)(=O)=O)cc2OC)nc2[nH]ccc12` [Example 16, (R)-N^4-(sec-butyl)-N^2-(2-methoxy-4-(4-methylsulfonyl)phenyl)-7H-pyrrolo[2,3-d]pyrimidine-2,4-diamine], the IC50 on human GST-DYRK1A and at human GST-CLK1 was 301 to 1000 nM each time.

As to `COc1cc(P2(=O)CCN(C3COC3)CC2)ccc1Nc1nc(N[C@H]2CCOC2)c2c(C#N)c[nH]c2n1` [Example 301, (S)-2-((2-methoxy-4-(1-(oxetan-3-yl)-4-oxido-1,4-azaphosphinan-4-yl)phenyl)amino)-4-((tetrahydrofuran-3-yl)amino)-7H-pyrrolo[2,3-d]pyrimidine-5-carbonitrile], the IC50 is 301 to 1000 nM on human GST-DYRK1A and < 100 nM at human GST-CLK1.

`COc1cc(P2(=O)CCN(C3COC3)CC2)ccc1Nc1nc(NC2COC2)c2c(C#N)c[nH]c2n1` [Example 311, 2-((2-methoxy-4-(1-(oxetan-3-yl)-4-oxido-1,4-azaphosphinan-4-yl)phenyl)amino)-4-(oxetan-3-ylamino)-7H-pyrrolo[2,3-d]pyrimidine-5-carbonitrile]: the IC50 at human GST-DYRK1A and on human GST-CLK1 was 301 to 1000 nM throughout.

As to `COc1cc(P(C)(C)=O)ccc1Nc1nc(NC2CCOCC2)c2c(C#N)c[nH]c2n1` [Example 272, 2-((4-(dimethylphosphoryl)-2-methoxyphenyl)amino)-4-((tetrahydro-2H-pyran-4-yl)amino)-7H-pyrrolo[2,3-d]pyrimidine-5-carbonitrile], the IC50 on human GST-DYRK1A and on human GST-CLK1 was 301 to 1000 nM in each case.

With `N#Cc1c[nH]c2nc(Nc3ccc(C(=O)N4CCN(C5COC5)CC4)c4c3OCCO4)nc(NC3CC3)c12` [Example 287, 4-(cyclo-propylamino)-2-((8-(4-(oxetan-3-yl)piperazine-1-carbonyl)-2,3-dihydrobenzo[b] [1,4]dioxin-5-yl)amino)-7H-pyrrolo[2,3-d]pyrimidine-5-carbonitrile], the half-inhibitory concentration (IC50) was 301 to 1000 nM on human GST-DYRK1A and < 100 nM at human GST-CLK1.

Source of the values: US20230066011A1, “PYRROLOPYRIMIDINE DERIVATIVE, AND PHARMACEUTICAL COMPOSITION FOR PREVENTING OR TREATING PROTEIN KINASE-RELATED DISEASE COMPRISING SAME AS ACTIVE INGREDIENT” (VORONOI CO., LTD., priority 2019, published 2023).
